Patent US10779537B2, “1H-pyrrolopyridine compound, N-oxide thereof or salt thereof, agricultural and horticultural insecticide comprising the compound, and method for using the insecticide” (Nihon Nohyaku Co., Ltd., priority 2016, dated 2020)

How the values were obtained:
Laodelphax striatellus = experiment: Insecticidal test on Laodelphax striatellus (rice seedling dip); format: in vivo; conditions: 192 h, rice seedlings dipped 30 seconds, ten 3rd-instar larvae, 8 days after inoculation, read-out: insecticidal efficacy (corrected mortality rate)
Text: Insecticidal Test on Laodelphax striatellus
The condensed heterocyclic compounds represented by the general formula (1) of the present invention or salts thereof were separately dispersed in water and diluted to 500 ppm. Rice plant seedlings (variety: Nihonbare) were dipped in the agrochemical dispersions for 30 seconds. After air-dried, each seedling was put into a separate glass test tube and inoculated with ten 3rd-instar larvae of Laodelphax striatellus, and then the glass test tubes were capped with cotton plugs. At 8 days after the inoculation, the numbers of surviving larvae and dead larvae were counted, the corrected mortality rate was calculated according to the formula shown below, and the insecticidal efficacy was evaluated according to the criteria shown below. Corrected mortality rate (%)=100×(Survival rate in a non-treatment plot−Survival rate in a treatment plot)/Survival rate in a non-treatment plot [Math. 2] Corrected Mortality Rate A: the corrected mortality rate is 100%. B: the corrected mortality rate is 90 to 99%. C: the corrected mortality rate is 80 to 89%. D: the corrected mortality rate is 50 to 79%.

Plutella xylostella = experiment: Insecticidal test on Plutella xylostella (dip of Chinese cabbage seedlings with laid eggs); format: in vivo; conditions: 144 h, seedlings with laid eggs dipped about 30 seconds, 25° C., 6 days after dip treatment, criteria of Test Example 2, read-out: insecticidal efficacy (corrected mortality rate, hatched larvae)
Text: Insecticidal Test on Plutella xylostella
Adults of Plutella xylostella were released onto Chinese cabbage seedlings and allowed to lay eggs thereon. At 2 days after the release of the adults, the Chinese cabbage seedlings with laid eggs were dipped for about 30 seconds in agrochemical dispersions diluted to 500 ppm, each of which contained a different condensed heterocyclic compound represented by the general formula (1) of the present invention as an active ingredient. After air-dried, the seedlings were kept in a thermostatic chamber at 25° C. At 6 days after the dip treatment, the number of hatched larvae per plot was counted, the mortality rate was calculated according to the formula shown below, and the insecticidal efficacy was evaluated according to the criteria of Test Example 2. This test was conducted in triplicate using 10 adults of Plutella xylostella per plot. Corrected mortality rate (%)=100×(Number of hatched larvae in a non-treatment plot−Number of hatched larvae in a treatment plot)/Number of hatched larvae in a non-treatment plot [Math. 3]

Structure (SMILES) | mortality at 500 ppm (Laodelphax striatellus) | mortality at 500 ppm (Plutella xylostella)
CCS(=O)(=O)c1cc(C(F)(F)F)cnc1-c1[nH]c2cc(C(F)(F)F)cnc2c1F [Compound 1-75, 2-(3-ethylsulfonyl-5-trifluoromethylpyridin-2-yl)-3-fluoro-6-trifluoromethyl-1H-pyrrolo[3,2-b]pyridine] | 100% | 100%
CCS(=O)(=O)c1cc(C(F)(F)F)cnc1-c1[nH]c2cc(C(F)(F)F)cnc2c1Cl [Compound 1-76, 2-(3-ethylsulfonyl-5-trifluoromethylpyridin-2-yl)-3-chloro-6-trifluoromethyl-1H-pyrrolo[3,2-b]pyridine] | 100% | 100%
CCS(=O)(=O)c1cc(C(F)(F)F)cnc1-c1[nH]c2cc(C(F)(F)F)cnc2c1Br [Compound 1-77, 2-(3-ethylsulfonyl-5-trifluoromethylpyridin-2-yl)-3-bromo-6-trifluoromethyl-1H-pyrrolo[3,2-b]pyridine] | 100% | 100%
CCS(=O)(=O)c1cc(C(F)(F)F)cnc1-c1c(Cl)c2ncc(C(F)(F)F)cc2n1C(C)=O [Compound 3-3, 1-acetyl-2-(3-ethylsulfonyl-5-trifluoromethylpyridin-2-yl)-3-chloro-6-trifluoromethyl-1H-pyrrolo[3,2-b]pyridine] | 100% | 100%
